In ChEMBL document CHEMBL3879914, “Inhibitors of central nervous system vasoactive inhibitory peptide receptor 2” (2014):

What was measured:
[1] = target: T1, Vasoactive intestinal polypeptide receptor 2 (Homo sapiens) (UniProt P41587); assay: (§1) Antagonist activity at recombinant human N-terminal signal peptide/FLAG epitope-tagged Rluc8-fused VIPR2 expressed in HEK293 cells assessed as inhibition of VIP-induced human mVenus-beta-arrestin2 binding at 5 uM preincubated for 5 mins with luciferin, coelenterazine H followed by VIP addition measured after 5 mins by BRET assay relative to control; format: cell-based
T1 sequence (whole entry): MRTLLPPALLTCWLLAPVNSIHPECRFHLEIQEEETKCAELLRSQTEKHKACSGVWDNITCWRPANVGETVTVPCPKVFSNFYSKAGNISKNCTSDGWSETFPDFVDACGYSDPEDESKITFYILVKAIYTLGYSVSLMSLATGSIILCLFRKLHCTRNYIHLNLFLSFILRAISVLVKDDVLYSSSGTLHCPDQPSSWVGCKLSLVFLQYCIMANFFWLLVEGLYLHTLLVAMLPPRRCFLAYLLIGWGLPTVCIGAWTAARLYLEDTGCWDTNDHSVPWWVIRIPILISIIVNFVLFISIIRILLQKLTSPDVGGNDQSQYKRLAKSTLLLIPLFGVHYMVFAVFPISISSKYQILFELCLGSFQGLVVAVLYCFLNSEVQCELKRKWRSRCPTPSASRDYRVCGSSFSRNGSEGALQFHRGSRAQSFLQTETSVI

[2] = target: T1, Vasoactive intestinal polypeptide receptor 2 (Homo sapiens); assay: as §1, with “at 1” for “at 5”; format: cell-based
[3] = target: T1, Vasoactive intestinal polypeptide receptor 2 (Homo sapiens); assay: (§2) Antagonist activity at recombinant human N-terminal signal peptide/FLAG epitope-tagged VIPR2 expressed in HEK293 cells co-expressing CAMYEL assessed as inhibition of VIP-induced cAMP accumulation at 0.5 uM preincubated for 5 mins with luciferin, coelenterazine H followed by VIP addition measured after 5 mins by BRET assay relative to control; format: functional, cell-based
[4] = target: T1, Vasoactive intestinal polypeptide receptor 2 (Homo sapiens); assay: as §2, with “5” for “0.5”; format: functional, cell-based
[5] = target: T1, Vasoactive intestinal polypeptide receptor 2 (Homo sapiens); assay: as §2, with “1” for “0.5”; format: functional, cell-based
[6] = target: T1, Vasoactive intestinal polypeptide receptor 2 (Homo sapiens); assay: as §1, with “at 0.5” for “at 5”; format: cell-based

Row | Structure (SMILES) | inhibition [1] [%] | inhibition [2] [%] | inhibition [3] [%] | inhibition [4] [%] | inhibition [5] [%] | inhibition [6] [%]
1 | O=C([C@@H](Cc1ccccc1)C[C@H](O)CNS(=O)(=O)c1ccc([N+](=O)[O-])cc1)N1CCCCC1 | 14.9 | 9.2 | 14.2 | 9.4 | 14.2 | 9.5 to 12.2
2 | CC(=O)Nc1ccc(S(=O)(=O)NC[C@@H](O)C[C@@H](Cc2ccccc2)C(=O)N[C@H]2c3ccccc3C[C@H]2O)cc1 | 4.2 | 4.9 | 15.2 | 19.1 | 19.1 | -1.2 to 11.7
3 | O=C(NC1CCCC1)[C@H](Cc1ccccc1)C[C@H](O)CNS(=O)(=O)c1ccc([N+](=O)[O-])cc1 | 9.2 | 17.1 | -2.1 | 4.7 | -4.9 | 6.95 to 17.4
4 | CCN(CC)C(=O)c1ccc(S(=O)(=O)NC[C@@H](O)C[C@@H](Cc2ccccc2)C(=O)N[C@H]2c3ccccc3C[C@H]2O)cc1 | -1.2 | 3.1 | 2.5 | 31.8 | 5.9 | 0.3 to 15.3
5 | Nc1ccc(S(=O)(=O)NC[C@@H](O)C[C@@H](Cc2ccccc2)C(=O)N[C@H]2c3ccccc3C[C@H]2O)cc1 | 6.7 | -5.5 | 8.4 | 33.3 | 18.6 | -5.6 to 20
6 | O=C(NC1CCCCCC1)[C@@H](Cc1ccccc1)C[C@H](O)CNS(=O)(=O)c1ccc([N+](=O)[O-])cc1 | 6.8 | 3.6 | 15.5 | 14.3 | 10.6 | -4 to 10.6
7 | O=C(NN1CCCCC1)[C@H](Cc1ccccc1)C[C@H](O)CNS(=O)(=O)c1ccc([N+](=O)[O-])cc1 | 6.5 | 4.4 | 6.3 | 4.4 | 7.1 | -6.4 to 5.45
8 | CC(C)CS(=O)(=O)NC[C@@H](O)C[C@@H](Cc1ccccc1)C(=O)N[C@H]1c2ccccc2C[C@H]1O | 20 | 3.2 | 13.3 | 22.2 | 15.6 | 7.1 to 21.1
9 | CC(C)Nc1ccc(S(=O)(=O)NC[C@@H](O)C[C@@H](Cc2ccccc2)C(=O)N[C@H]2c3ccccc3C[C@H]2O)cc1 | 11.8 | -2 | 17.2 | 20.6 | 18.2 | 8.1 to 16.2
10 | NC[C@@H](O)C[C@@H](Cc1ccccc1)C(=O)N[C@H]1c2ccccc2C[C@H]1O | 19.7 | 1.4 | 11.8 | 7.4 to 15.2 | 7.4 to 15.9 | 3.7 to 17.4
11 | CNC(=O)[C@H](Cc1ccccc1)C[C@H](O)CNS(=O)(=O)c1ccc([N+](=O)[O-])cc1 | 3.2 | 4 | 7 | 9.3 | 8.3 | 6.25 to 6.9
12 | O=C(Nc1ccc(S(=O)(=O)NC[C@@H](O)C[C@@H](Cc2ccccc2)C(=O)N[C@H]2c3ccccc3C[C@H]2O)cc1)C1CC1 | -4.2 | -0.3 | -2.4 | 34.3 | 23 | 6.4 to 15.1
13 | O=C(NC[C@@H](O)C[C@@H](Cc1ccccc1)C(=O)N[C@H]1c2ccccc2C[C@H]1O)c1cccc([N+](=O)[O-])c1 | -4 | 7.4 | 11.8 | 13.5 | 11 | 4.75 to 19.9
